Test results: article PMC6770006, “Novel Heat Shock Protein 90 Inhibitors Suppress P-Glycoprotein Activity and Overcome Multidrug Resistance in Cancer Cells” (International Journal of Molecular Sciences, 2019)
Entries after “also recorded” stand apart in the source; their conditions may differ.

Key:
NCI-H460 cells = assay: MTT assay, cell growth inhibition, NCI-H460; format: cell-based; conditions: Homo sapiens, 72 h, three independent experiments
Experimental: (§1) A series of 3-aryl-naphtho[2,3-d]isoxazole-4,9-diones were synthesized (Scheme 1, Figure 1) and their growth inhibition activity was tested in vitro on human non-small cell lung carcinoma NCI-H460, colorectal carcinoma DLD1 and their corresponding MDR cells (NCI-H460/R and DLD1-TxR, respectively), as well as normal embryonic lung fibroblasts MRC-5. The differences in cell growth inhibition between cancer and normal cells obtained by the MTT assay after 72 h treatment are presented in Table 1. The effect of compounds is presented as IC50 values that correspond to the 50% of cell growth inhibition.
(§2) Cell viability was assessed by the MTT assay (AppliChem GmbH, Darmstadt, Germany). Cells grown in 25 cm^2 tissue flasks were trypsinized and 1000 cells/well were seeded into flat-bottomed 96-well tissue culture plates and incubated overnight. Subsequently, the cells were treated with increasing concentrations of Hsp90 inhibitors for 72 h: compound 3 (0.1–2.5 µM), compound 4 (0.25–5 µM), compound 5 (0.5–25 µM), compound 6 (50–1000 nM), compound 7 (10–250 nM), compound 8 (0.25–5 µM), compound 9 (10–250 nM), compound 10 (0.5–25 µM), compound 13 (0.5–10 µM), compound 14 (1–25 µM), and compound 15 (10–250 nM). […] After treatment, MTT was added to each well in a final concentration of 0.2 mg/mL for 4 h. Formazan product was dissolved in 200 µl of DMSO, and the absorbance was measured at 540 nm using an automatic LKB 5060-006 Micro Plate Reader (Vienna, Austria). IC50 value was defined as a concentration of the drug that inhibited cell growth by 50% and was calculated by nonlinear regression analysis using GraphPad Prism 6.0 for Windows (La Jolla, CA, USA). Relative selectivity towards cancer cells was calculated as a relation between IC50 value obtained in MRC-5 cells and an average IC50 value from four tested cancer cell lines.

DLD1 cells = assay: MTT assay, cell growth inhibition, DLD1; format: cell-based; conditions: Homo sapiens, DLD-1, 72 h
Experimental: as §1, §2

DLD1-TxR cells = assay: MTT assay, cell growth inhibition, DLD1-TxR (MDR); format: cell-based, human; conditions: 72 h; for IC50: Homo sapiens, MDR cells
Experimental: as §1
Human colorectal carcinoma (DLD1), non-small cell lung carcinoma (NCI-H460), and normal embryonic lung fibroblast (MRC-5) cell lines were purchased from the American Type Culture Collection, Rockville, MD. P-gp overexpressing multidrug resistant DLD1-TxR cells were selected by continuous exposure to stepwise increasing concentrations of paclitaxel from DLD1 cells, while NCI-H460/R cells were selected from NCI-H460 cells after DOX selective pressure. MDR cancer cell lines, DLD1-TxR and NCI-H460/R, and their sensitive counterparts were maintained in RPMI 1640 medium supplemented with 10% FBS, 2 mM L-glutamine, and 10,000 U/mL penicillin, 10 mg/mL streptomycin, 25 mg/mL amphotericin B solutions. MRC-5 cells were cultured in DMEM supplemented with 10% FBS, 4 g/L glucose, 2 mM L-glutamine and 5000 U/mL penicillin, 5 mg/mL streptomycin solution. All cell lines were sub-cultured at 72 h intervals using 0.25% trypsin/EDTA and seeded into a fresh medium at 8000 cells/cm^2. All cell lines were maintained at 37 °C in a humidified 5% CO2 atmosphere.
as §2

P-gp [1] = biological target: T1, P-gp (Homo sapiens, UniProt P08183); assay: P-gp ATPase activity assay (Pgp-Glo); format: biochemical; design: purchased Promega; conditions: 5: 5, 10, 20 µM; 7 and 9: 100, 250, 500 nM; Figure 5a
Experimental: P-gp relies on the ATP hydrolysis energy to extrude the substrate outside the cell and compounds that interact with P-gp can stimulate or inhibit its ATPase activity. Compounds that are P-gp substrates usually stimulate its ATPase activity. Pgp-Glo™ assay system (Promega, Madison, WI, USA) detects the compound’s effect on recombinant human P-gp in a cell membrane fraction. P-gp ATPase activity was measured using luminescent Pgp-Glo™ assay kit according to manufacturer’s instructions. Briefly, ATP was first incubated with P-gp; then the P-gp ATPase reaction was stopped, and the remaining unmetabolized ATP was detected as a luciferase-generated luminescent signal. Pgp-dependent decreases in luminescence reflect ATP consumption by P-gp; thus, the greater the decrease in signal, the higher the P-gp activity. […] Verapamil and sodium orthovanadate, supplied in the assay kit were used as positive controls. Verapamil is a P-gp substrate and competitive inhibitor, and sodium orthovanadate is a noncompetitive inhibitor of P-gp ATPase activity. The luminescence of samples treated with increasing concentrations of compound 5 (5 µM, 10 µM and 20 µM), compound 7 (100 nM, 250 nM and 500 nM) and compound 9 (100 nM, 250 nM and 500 nM), was measured with a luminometer microplate reader (CHAMELEON™V, Hidex, Turku, Finland).

P-gp [2] = biological target: T1, P-gp; assay: Rhodamine 123 accumulation assay (P-gp activity, flow cytometry); format: cell-based; design: P-gp overexpressing multidrug resistant DLD1-TxR cells were selected by continuous exposure to stepwise increasing concentrations of paclitaxel from DLD1 cells; endogenous in cells; host or cells: NCI-H460/R and DLD1-TxR (drug-selected MDR human cancer cells); conditions: MDR NCI-H460/R and DLD1-TxR cells, 30 min, one concentration per compound (100 nM-10 µM), Figure 3a
Experimental: To study the effect of Hsp90 inhibitors on P-gp activity in MDR cancer cells, intracellular accumulation of the P-gp substrate rhodamine 123 (Rho 123) was analyzed by flow cytometry after 30 min treatment (Figure 3a). A well-known inhibitor of P-gp activity, tariquidar (TQ), was included as a positive control.
The accumulation of Rho 123, a fluorescent P-gp substrate, was measured by flow cytometry. The intensity of the fluorescence is proportional to Rho 123 accumulation in the cell. All cell lines were seeded in adherent 6-well plates and grown overnight. DLD1-TxR and NCI-H460/R cells were treated for 30 min with the following concentrations of Hsp90 inhibitors: 500 nM compound 3, 1 µM compound 4, 10 µM compound 5, 500 nM compound 6, 500 nM compound 7, 1 µM compound 8, 500 nM compound 9, 1 µM compound 10, 1 µM compound 13, 10 µM compound 14, 100 nM compound 15. TQ (10 nM) was used as a positive control for Rho 123 accumulation. Rho 123 (5 μM) was simultaneously added with the investigated compounds and the cells were incubated at 37 °C in 5% CO2 for 30 min. The cells were then trypsinized, pelleted by centrifugation, washed with PBS and placed in ice-cold PBS. The samples were kept on ice in the dark until the analysis on CyFlow Space Partec flow cytometer (Sysmex Partec GmbH, Görlitz, Germany). The fluorescence of Rho 123 was detected on fluorescence channel 1 (FL1-H) at 530 nm. A minimum of 10,000 events were collected for each sample and the obtained results were analyzed using Summit software.

T1 sequence (P08183 whole entry): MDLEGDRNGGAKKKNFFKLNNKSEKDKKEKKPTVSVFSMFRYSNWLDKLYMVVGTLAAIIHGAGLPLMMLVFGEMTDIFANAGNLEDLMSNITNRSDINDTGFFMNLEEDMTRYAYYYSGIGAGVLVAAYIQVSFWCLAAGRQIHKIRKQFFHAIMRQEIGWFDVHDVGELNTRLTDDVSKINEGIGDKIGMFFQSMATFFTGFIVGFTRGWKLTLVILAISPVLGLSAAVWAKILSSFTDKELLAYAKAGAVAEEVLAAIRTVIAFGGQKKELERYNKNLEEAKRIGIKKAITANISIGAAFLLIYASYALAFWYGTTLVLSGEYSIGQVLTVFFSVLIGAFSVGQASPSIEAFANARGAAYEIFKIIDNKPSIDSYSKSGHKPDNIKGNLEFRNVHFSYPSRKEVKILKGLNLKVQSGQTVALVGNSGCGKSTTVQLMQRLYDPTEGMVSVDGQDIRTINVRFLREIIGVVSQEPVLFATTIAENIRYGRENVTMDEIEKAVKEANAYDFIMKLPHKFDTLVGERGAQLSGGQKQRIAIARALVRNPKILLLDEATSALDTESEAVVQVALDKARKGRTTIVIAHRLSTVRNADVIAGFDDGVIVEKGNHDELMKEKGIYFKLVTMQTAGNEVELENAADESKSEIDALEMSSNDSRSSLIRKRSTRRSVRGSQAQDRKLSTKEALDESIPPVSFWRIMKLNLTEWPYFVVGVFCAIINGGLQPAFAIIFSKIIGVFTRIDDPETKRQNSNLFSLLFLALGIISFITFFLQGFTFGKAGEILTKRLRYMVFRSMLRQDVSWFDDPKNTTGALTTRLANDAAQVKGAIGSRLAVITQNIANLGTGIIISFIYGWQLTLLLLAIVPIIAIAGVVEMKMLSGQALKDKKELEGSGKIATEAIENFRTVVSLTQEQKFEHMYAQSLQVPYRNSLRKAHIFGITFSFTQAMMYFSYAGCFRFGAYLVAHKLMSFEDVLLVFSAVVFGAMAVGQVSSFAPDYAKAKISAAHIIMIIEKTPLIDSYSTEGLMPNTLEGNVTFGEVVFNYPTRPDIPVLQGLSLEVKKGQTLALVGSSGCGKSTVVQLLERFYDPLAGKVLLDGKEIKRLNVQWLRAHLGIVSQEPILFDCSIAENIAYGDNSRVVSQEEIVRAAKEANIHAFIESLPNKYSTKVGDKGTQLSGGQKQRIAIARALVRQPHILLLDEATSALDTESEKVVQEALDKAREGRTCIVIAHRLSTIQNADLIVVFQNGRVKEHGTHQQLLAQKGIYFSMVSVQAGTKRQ

SMILES: O=C1c2ccccc2C(=O)c2c(-c3ccncc3)noc21 [Compound 7]
- IC50 (NCI-H460 cells): 199 ± 5 nM
- IC50 (DLD1 cells): 156 ± 4 nM
- Efficacy in MDR DLD1-TxR cells compared with sensitive DLD1 (DLD1-TxR cells): evaded resistance in both MDR cancer cell lines
- IC50 (DLD1-TxR cells): 138 ± 3 nM
- Effect on P-gp ATPase activity (P-gp [1]): potent dose-dependent inhibition
- P-gp activity / Rho 123 accumulation (P-gp [2]): most prominent effect in both MDR cell lines

SMILES: O=C1c2ccccc2C(=O)c2c(-c3cccnc3)noc21 [Compound 9]
- IC50 (NCI-H460 cells): 96 ± 2 nM
- IC50 (DLD1 cells): 45 ± 1 nM
- IC50 (DLD1-TxR cells): 50 ± 1 nM
- Effect on P-gp ATPase activity (P-gp [1]): significant inhibition
- P-gp activity / Rho 123 accumulation (P-gp [2]): most prominent effect in both MDR cell lines

SMILES: O=C1c2ccccc2C(=O)c2c(-c3ccccc3O)noc21 [Compound 5]
- IC50 (NCI-H460 cells): 5720 ± 73 nM
- IC50 (DLD1 cells): 5680 ± 163 nM
- Efficacy in MDR DLD1-TxR cells compared with sensitive DLD1 (DLD1-TxR cells): further compromised in the presence of MDR phenotype
- IC50 (DLD1-TxR cells): 11100 ± 304 nM
- Effect on P-gp ATPase activity (P-gp [1]): smallest effect on ATPase activity
- P-gp activity / Rho 123 accumulation (P-gp [2]): significant beneficial effect on P-gp inhibition; also recorded: most prominent effect in both MDR cell lines
